Legend:
human VPS34 = human VPS34 (Homo sapiens (Human), UniProt Q8NEB9); assay: Human VPS34 enzyme assay (Adapta TR-FRET ADP detection); assay type: biochemical; conditions: IC50 range class
A431 cell line = assay: Cellular anti-proliferative assay of VPS34 inhibitors in combination with a second therapeutic agent (Cell Titer Glo, 72 hrs); assay type: cell-based
Description: (§1) Example 57: Cellular Assay for Anti-proliferative Activity of VPS34 Inhibitors in Combination with a Second Therapeutic Agent
(§2) Cells were plated in 25 μl of media in 384 well plates at 1,000 cells per well (A431, PC9, and […] cell lines), 1,500 cells per well (NCI-H1975) or 2,000 cells per well (NCI-H1650). The plates were incubated for 24 hrs at 37° C., 6% CO2. The test compounds (see Table 38 below) were diluted serially, and 62.5 nL of each compound solution (or DMSO, if it is a single agent experiment) is added so the total added to the cells is 125 nL. Cell plates were incubated for 72 hrs at 37° C., 6% CO2. Cell Titer Glo reagent (Promega) was added. The plates were then incubated for 10 minutes at room temperature before luminescence was read on a plate reader such as the Pherastar Plus, Pherastar FS, or LEADSeeker imaging system.
(§3) Bliss antagonism was defined similarly.
(§4) Bliss dependence was defined as the percent cell survival at a certain dose combination divided by the percent cell survival predicted by Bliss independence. More specifically, the Bliss dependence is vAB/(vA*vB), where vAB is the viability with drug A and drug B added, while vA and vB are the viabilities with each drug alone. The dose for the combination used in this study is the inflection point for each drug alone.
(§5) Another way to evaluate additivity is through consideration of Loewe additivity. A difference between Bliss independence and Loewe additivity evaluations of drug combination data is that Bliss independence evaluates whether two drugs interact at all (the null hypothesis is that the mechanisms are entirely independent) and Loewe additivity evaluates whether two drugs interact in an additive fashion (the null hypothesis is that the two drugs work by identical mechanisms). For Bliss independence, the boundary between additivity and synergy must be measured. For Loewe additivity, this boundary is assumed to be at a value of 1. Thus, Bliss independence provides a boundary between antagonism and synergy or additivity. Loewe additivity provides a boundary between synergy and independence or antagonism.
(§6) Synergy can also be measured by nonlinear blending synergy. Nonlinear blending synergy [Peterson, J. J. and Novik, S. J. J Recept Signal Transduct Res, 27, 12-146 (2007))] is found by considering the percent cell death values along the nonlinear blending plot. If the maximum cell death occurs between the endpoints, then the blending synergy is the difference between the maximum cell death for the combined drugs and the maximum cell death for the either drug alone.
(§7) A derivative of Loewe additivity is the Combination Index, I (see Chou T. C., Talalay P. Adv. Enzyme Reg., 22: 27-55 (1984) and Berenbaum M. C. J. Theor. Biol., 114:413-431 (1985)). This measure is based on the shape of the isobologram which represents 50% viability (for a review of the use of isobolograms in analysis of drug combinations, see Tallarida, R. J. J. Pharm. Exp. Therap. 319:1-7 (2006)).
(§8) The results in Table 38A were summarized by categorizing the Combination Index, I. A mean Combination Index in the range (0.7-1.3) is classified as Additivity. A mean in the range (0-0.7) is classified as Synergy. A mean in the range (1.3-2) is classified as Subadditivity. A mean greater than 2 is classified as Antagonism. […] In this case, the Nonlinear Blending Synergy is used instead to generate a call (Table 38B). The categorization is similar to the Combination Index. A Nonlinear Blending Synergy within the range (−20, 20) is classified as Additive. A value below −20 is classified as Antagonism, while a value above 20 is classified as Synergy.

NCI-H1650 cell line = assay: as above; assay type: cell-based, human; conditions: NCI H-1650; for Blending Synergy: in combination with Erlotinib (Compound Y)
Description: as §1, §2, §3, §4, §5, §6, §7, §8

NCI-H1975 cell line = assay: as above; assay type: cell-based, human
Description: as §1, §2, §3, §4, §5, §6, §7, §8

PC9 cell line = assay: as above; assay type: cell-based, human
Description: as §1, §2, §3, §4, §5, §6, §7, §8

[1] = in combination with Afatinib (Compound Y)
[2] = in combination with Afatinib, call from Combination Index
[3] = in combination with Erlotinib (Compound Y)
[4] = in combination with Erlotinib, call from Combination Index
[5] = in combination with AZD9291 (Compound Y)
[6] = in combination with AZD9291, call from Combination Index
[7] = in combination with CO-1686 (Compound Y)
[8] = in combination with CO-1686, call from Combination Index

Chain of human VPS34 (Q8NEB9 whole entry): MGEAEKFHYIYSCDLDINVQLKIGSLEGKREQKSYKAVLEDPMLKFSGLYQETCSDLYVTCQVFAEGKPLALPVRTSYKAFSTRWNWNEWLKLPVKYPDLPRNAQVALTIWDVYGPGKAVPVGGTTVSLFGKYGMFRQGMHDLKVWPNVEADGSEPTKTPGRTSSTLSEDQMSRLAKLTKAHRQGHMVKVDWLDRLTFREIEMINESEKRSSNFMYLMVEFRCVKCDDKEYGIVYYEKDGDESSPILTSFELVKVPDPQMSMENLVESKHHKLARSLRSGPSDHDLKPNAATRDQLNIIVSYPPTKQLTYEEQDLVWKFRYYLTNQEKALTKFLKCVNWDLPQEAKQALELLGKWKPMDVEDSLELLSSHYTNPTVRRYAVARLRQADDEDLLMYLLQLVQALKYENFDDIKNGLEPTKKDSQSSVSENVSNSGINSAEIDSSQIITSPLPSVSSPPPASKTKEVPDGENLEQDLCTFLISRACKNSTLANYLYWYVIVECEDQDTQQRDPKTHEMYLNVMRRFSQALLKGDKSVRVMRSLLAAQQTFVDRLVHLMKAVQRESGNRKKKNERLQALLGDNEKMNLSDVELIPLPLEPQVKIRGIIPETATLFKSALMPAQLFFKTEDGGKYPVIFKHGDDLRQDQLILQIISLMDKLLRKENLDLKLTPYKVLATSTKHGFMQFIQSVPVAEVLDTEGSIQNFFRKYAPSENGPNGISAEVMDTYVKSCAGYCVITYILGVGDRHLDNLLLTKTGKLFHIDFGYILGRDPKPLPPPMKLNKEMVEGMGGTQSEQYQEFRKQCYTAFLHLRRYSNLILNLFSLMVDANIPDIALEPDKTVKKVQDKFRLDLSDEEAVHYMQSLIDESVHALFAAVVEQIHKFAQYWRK

IC50 (human VPS34) [nM] | Structure (SMILES) | Combination Index (A431 cell line; [1]) | Meaning (A431 cell line; [2]) | Combination Index (A431 cell line; [3]) | Meaning (A431 cell line; [4]) | Combination Index (NCI-H1650 cell line; [1]) | Blending Synergy (NCI-H1650 cell line) | Combination Index (NCI-H1975 cell line; [1]) | Combination Index (PC9 cell line; [1]) | Meaning (PC9 cell line; [2]) | Combination Index (PC9 cell line; [3]) | Meaning (PC9 cell line; [4]) | further results
< 10 | CC(=O)Nc1cc(-c2cnc(C)c(NS(=O)(=O)N(C)C)c2)ccn1 [Compound I-32, N-{5-[(dimethylsulfamoyl)amino]-6-methyl-3,4′-bipyridin-2′-yl}acetamide] | 0.25 | Synergy (A mean in the range (0-0.7) is classified as Synergy) | 0.73 | Additivity (A mean Combination Index in the range (0.7-1.3) is classified as Additivity) | 0.40 | 22.29 | 0.66 | 0.79 | Additivity (A mean Combination Index in the range (0.7-1.3) is classified as Additivity) | 0.78 | Additivity (A mean Combination Index in the range (0.7-1.3) is classified as Additivity) | 
< 10 | CC(=O)Nc1cc(-c2cnc(C)c(NS(=O)(=O)c3ccc(F)cc3F)c2)ccn1 [Compound I-41, N-(5-{[(2,4-difluorophenyl)sulfonyl]amino}-6-methyl-3,4′-bipyridin-2′-yl)acetamide] | 0.24 | Synergy (A mean in the range (0-0.7) is classified as Synergy) | 0.38 | Synergy (A mean in the range (0-0.7) is classified as Synergy) | 0.72 | 20.5 | 0.58 | 1.02 | Additivity (A mean Combination Index in the range (0.7-1.3) is classified as Additivity) | 1.02 | Additivity (A mean Combination Index in the range (0.7-1.3) is classified as Additivity) | Combination Index (A431 cell line; [5]): 0.62; Meaning (A431 cell line; [6]): Synergy (A mean in the range (0-0.7) is classified as Synergy); Combination Index (A431 cell line; [7]): 0.74; Meaning (A431 cell line; [8]): Additivity (A mean Combination Index in the range (0.7-1.3) is classified as Additivity); Combination Index (NCI-H1650 cell line; [5]): 0.92; Combination Index (NCI-H1650 cell line; [7]): 0.58; Combination Index (NCI-H1975 cell line; [5]): 0.45; Combination Index (NCI-H1975 cell line; [7]): 0.51; Combination Index (PC9 cell line; [5]): 0.92; Meaning (PC9 cell line; [6]): Additivity (A mean Combination Index in the range (0.7-1.3) is classified as Additivity); Combination Index (PC9 cell line; [7]): 0.84; Meaning (PC9 cell line; [8]): Additivity (A mean Combination Index in the range (0.7-1.3) is classified as Additivity)
< 10 | CC(=O)Nc1cc(-c2cnc(C)c(NS(=O)(=O)c3ccc(Cl)cc3F)c2)ccn1 [Compound I-94, N-(5-{[(4-chloro-2-fluorophenyl)sulfonyl]amino}-6-methyl-3,4′-bipyridin-2′-yl)acetamide] | 0.23 | Synergy (A mean in the range (0-0.7) is classified as Synergy) | 0.38 | Synergy (A mean in the range (0-0.7) is classified as Synergy) | 0.65 | 23.69 | 0.54 | 1.04 | Additivity (A mean Combination Index in the range (0.7-1.3) is classified as Additivity) | 0.91 | Additivity (A mean Combination Index in the range (0.7-1.3) is classified as Additivity) | 
< 10 | CC(=O)Nc1cc(-c2cnc(Cl)c(NS(=O)(=O)c3ccc(F)cc3F)c2C)ccn1 [Compound I-153, N-(6-chloro-5-{[(2,4-diflourophenyl)sulfonyl]amino}-4-methyl-3,4′-bipyridin-2′-yl)acetamide] | 0.23 | Synergy (A mean in the range (0-0.7) is classified as Synergy) |  |  | 0.64 | 23.76 |  | 1.17 | Additivity (A mean Combination Index in the range (0.7-1.3) is classified as Additivity) | 0.97 | Additivity (A mean Combination Index in the range (0.7-1.3) is classified as Additivity) | Blending Synergy (A431 cell line; [3]): 16.3; Meaning (A431 cell line; in combination with Erlotinib, call from Nonlinear Blending Synergy): Additivity; Blending Synergy (NCI-H1975 cell line; [1]): 8.72

— US9751854B2 (Millennium Pharmaceuticals, Inc., priority 2014, dated 2017)
